# Source: patent publication US8673940B2, “Compounds for the treatment of diseases associated with amyloid or amyloid-like proteins” (AC Immune SA, priority 2006, dated 2014)
# Where a name gives a salt, the structure may show the parent alone.
# System: not given
# Experiment: not given
# Settings: not given
row,SMILES,melting point
1,"CNc1ncc(CNc2nc(-c3ccc(Cl)cc3)cs2)s1 (as salt: hydrochloride) [Compound 2aa, 4-(4-Chlorophenyl)-N-((2-(methylamino)thiazol-5-yl)methyl)thiazol-2-amine dihydrochloride]",122 to 123 °C
2,"CCCNc1ncc(CNc2ncc(CNc3nc(-c4ccc(C)cc4)cs3)s2)s1 (as salt: hydrochloride) [Compound 2ad, N-Propyl-5-((5-((4-p-tolylthiazol-2-ylamino)methyl)thiazol-2-ylamino)methyl)thiazol-2-amine trihydrochloride]",> 135 °C (dec.)
3,"c1ccc(CNc2ncc(CNc3nc(Cc4ccccc4)cs3)s2)cc1 (as salt: hydrochloride) [Compound 2ae, 4-Benzyl-N-((2-(benzylamino)thiazol-5-yl)methyl)thiazol-2-amine dihydrochloride]",78 to 79 °C
4,"CNc1ncc(CNc2nc(Cc3ccccc3)cs2)s1 (as salt: hydrochloride) [Compound 2af, 4-Benzyl-N-((2-(methylamino)thiazol-5-yl)methyl)thiazol-2-amine dihydrochloride]",126 to 127 °C
5,"c1ccc(CNc2ncc(CNc3ncc(Cc4ccccc4)s3)s2)cc1 (as salt: hydrochloride) [Compound 2ag, 5-Benzyl-N-((2-(benzylamino)thiazol-5-yl)methyl)thiazol-2-amine dihydrochloride]",96 to 97 °C
6,"CNc1ncc(CNc2ncc(Cc3ccccc3)s2)s1 (as salt: hydrochloride) [Compound 2ah, 5-Benzyl-N-((2-(methylamino)thiazol-5-yl)methyl)thiazol-2-amine dihydrochloride]",76 to 77 °C
7,"c1ccc(CNc2ncc(CNc3nc(-c4cccs4)cs3)s2)cc1 (as salt: hydrochloride) [Compound 2al, N-Benzyl-5-((4-(thiophen-2-yl)thiazol-2-ylamino)methyl)thiazol-2-amine dihydrochloride]",97 to 99 °C
8,"Cc1ccc(-c2cnc(NCc3cnc(NCc4ccccc4)s3)s2)cc1 (as salt: hydrochloride) [Compound 2h, N-Benzyl-5-((5-p-tolylthiazol-2-ylamino)methyl)thiazol-2-amine dihydrochloride]",105 to 106 °C
9,"Cc1ccc(-c2csc(NCc3cnc(NCc4ccccc4)s3)n2)cc1 (as salt: hydrochloride) [Compound 2j, N-Benzyl-5-((4-p-tolylthiazol-2-ylamino)methyl)thiazol-2-amine dihydrochloride]",106 to 108 °C
10,"Fc1ccc(-c2cc(NCc3cnc(NCc4ccccc4)s3)n[nH]2)cc1 (as salt: hydrochloride) [Compound 2k, N-Benzyl-5-((5-(4-fluorophenyl)-1H-pyrazol-3-ylamino)methyl)thiazol-2-amine dihydrochloride]",78 to 80 °C
11,"CNc1ncc(CNc2nc(-c3ccc(C)cc3)cs2)s1 (as salt: hydrochloride) [Compound 2n, N-Methyl-5-((4-p-tolylthiazol-2-ylamino)methyl)thiazol-2-amine dihydrochloride]",114 to 116 °C
12,"Nc1cccc(NCc2ccc(NCc3ccccc3)nc2)n1 (as salt: hydrochloride) [Compound 2y, N^2-((6-(benzylamino)pyridin-3-yl)methyl)pyridine-2,6-diamine]",261 to 262 °C
13,"Cc1ccc(-c2csc(NCc3cnc(Nc4ccccn4)s3)n2)cc1 (as salt: hydrochloride) [Compound 2z, N-(Pyridin-2-yl)-5-((4-p-tolylthiazol-2-ylamino)methyl)thiazol-2-amine trihydrochloride]",169 to 170 °C

# Target: T1, amyloid beta (Aβ) 1-42 peptide (Homo sapiens, UniProt P05067)
# T1 construct: amyloid beta (Aβ) 1-42 peptide; purchased Bachem
# T1 sequence (P05067 672-713 limits assumed): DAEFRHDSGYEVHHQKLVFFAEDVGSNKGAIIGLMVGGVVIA
# Experiment: Thioflavin T spectrofluorescence assay, inhibition of Aβ1-42 aggregation
# Type: biochemical
# Settings: 330 μM small molecule, 33 μM Aβ1-42 (10:1 molar ratio), 24 hrs at 37° C.; mean ± SD of two independent experiments; read-out: % inhibition
# Protocol: A number of the small molecules were tested for their capacity to inhibit the aggregation of amyloid beta (Aβ) 1-42 peptide using a thioflavin T spectrofluorescence assay.
# Aβ1-42 lyophilized powder (Bachem) was reconstituted in hexafluoroisopropanol (HFIP) to 1 mM. The peptide solution was sonicated for 15 min at room temperature, agitated overnight, and aliquots were placed into non-siliconized microcentrifuge tubes. The HFIP was then evaporated under a stream of argon. The resulting peptide film was dried under vacuum for 10 min, tightly sealed and stored at −80° C. until used.
# To assay for the small molecule-mediated inhibition of Aβ1-42 aggregation, the small molecules were dissolved before each experiment in anhydrous dimethyl sulfoxide (DMSO, Sigma-Aldrich) to reach a concentration of 7.4 mM. Aβ1-42 peptide film was dissolved in DMSO to reach 400 μM. Assay solution in PBS buffer was prepared in non-siliconized incubation tubes to reach the following concentrations: 330 μM small molecule, 33 μM Aβ1-42, 10 μM thioflavin T (ThT), and 12.8% DMSO. Therefore, the final molar ratio of small molecule to Aβ1-42 was 10:1. A positive control without a small molecule was prepared to measure maximum RFU. A negative control without Aβ1-42 was prepared for each small molecule. 3-Aminopyrazole trimer (Trimer) was tested in all assays to ascertain reproducibility between independent experiments. The solutions were incubated for 24 hrs at 37° C., and the spectrofluorescence (relative fluorescence units; RFU) was read in six replicates in black 384-well assay plates (Perkin-Elmer) on a Perkin-Elmer FluoroCount spectrofluorometer. Inhibition of aggregation is expressed as mean % inhibition or ±1 standard deviation (SD) according to the following equation: […]
# Cut-off criterium for the selection of functional molecules was defined at 50% inhibition capacity.
# The small molecules were evaluated for their capacity to mediate inhibition of Aβ1-42 aggregation at a 10:1 small molecule to Aβ1-42 molar ratio. The results are expressed as mean±standard deviation of two independent experiments.
row,SMILES,inhibition at 330 µM [%]
1,"c1ccc(CNc2cccc(CNc3cc(-c4cccs4)[nH]n3)n2)cc1 [Compound 2ac, N-benzyl-6-((5-(thiophen-2-yl)-1H-pyrazol-3-ylamino)methyl)pyridin-2-amine]",78.5 ± 1.3
2,"Fc1ccc(NCc2ccc(NCc3ccccc3)nc2)nc1 [Compound 2q, N-Benzyl-5-((5-fluoropyridin-2-ylamino)methyl)pyridin-2-amine]",45 ± 8.3
3,"Fc1ccc(-c2cc(CNc3cccc(NCc4ccccc4)n3)n[nH]2)cc1 [Compound 2s, N^2-benzyl-N^6-((5-(4-fluorophenyl)-1H-pyrazol-3-yl)methyl)pyridine-2,6-diamine]",55.1 ± 6.4
4,"Nc1cccc(NCc2ccc(NCc3ccccc3)nc2)n1 [Compound 2y, N^2-((6-(benzylamino)pyridin-3-yl)methyl)pyridine-2,6-diamine]",57 ± 15.9

# Same assay, conditions: 24 h
row,SMILES,inhibition at 330 µM [%]
1,"Cc1ccc(-c2cc(CNc3cc(-c4ccc(C)cc4)[nH]n3)n[nH]2)cc1 [Compound 2a, 5-p-Tolyl-N-((5-p-tolyl-1H-pyrazol-3-yl)methyl)-1H-pyrazol-3-amine dihydrochloride]",65.3 ± 2.6
2,"CNc1ncc(CNc2nc(-c3ccc(Cl)cc3)cs2)s1 [Compound 2aa, 4-(4-Chlorophenyl)-N-((2-(methylamino)thiazol-5-yl)methyl)thiazol-2-amine dihydrochloride]",41.5 ± 9.6
3,"CCCNc1ncc(CNc2ncc(CNc3nc(-c4ccc(C)cc4)cs3)s2)s1 [Compound 2ad, N-Propyl-5-((5-((4-p-tolylthiazol-2-ylamino)methyl)thiazol-2-ylamino)methyl)thiazol-2-amine trihydrochloride]",82.1 ± 2.2
4,"c1ccc(CNc2ncc(CNc3nc(Cc4ccccc4)cs3)s2)cc1 [Compound 2ae, 4-Benzyl-N-((2-(benzylamino)thiazol-5-yl)methyl)thiazol-2-amine dihydrochloride]",51.2 ± 1.5
5,"CNc1ncc(CNc2nc(Cc3ccccc3)cs2)s1 [Compound 2af, 4-Benzyl-N-((2-(methylamino)thiazol-5-yl)methyl)thiazol-2-amine dihydrochloride]",41.3 ± 9.2
6,"c1ccc(CNc2ncc(CNc3ncc(Cc4ccccc4)s3)s2)cc1 [Compound 2ag, 5-Benzyl-N-((2-(benzylamino)thiazol-5-yl)methyl)thiazol-2-amine dihydrochloride]",34.2 ± 1.6
7,"CNc1ncc(CNc2ncc(Cc3ccccc3)s2)s1 [Compound 2ah, 5-Benzyl-N-((2-(methylamino)thiazol-5-yl)methyl)thiazol-2-amine dihydrochloride]",35.7 ± 5.6
8,"Cc1ccc(-c2cc(CNc3cc(CNc4cc(-c5ccc(C)cc5)[nH]n4)n[nH]3)n[nH]2)cc1 [Compound 2ai, 5-p-Tolyl-N-((5-((5-p-tolyl-1H-pyrazol-3-yl)methylamino)-1H-pyrazol-3-yl)methyl)-1H-pyrazol-3-amine trihydrochloride]",84.8
9,"c1ccc(CNc2ncc(CNc3nc(-c4cccs4)cs3)s2)cc1 [Compound 2al, N-Benzyl-5-((4-(thiophen-2-yl)thiazol-2-ylamino)methyl)thiazol-2-amine dihydrochloride]",66.1 ± 15.4
10,"Cc1ccc(-c2cnc(NCc3cnc(NCc4ccccc4)s3)s2)cc1 [Compound 2h, N-Benzyl-5-((5-p-tolylthiazol-2-ylamino)methyl)thiazol-2-amine dihydrochloride]",31.9 ± 10.1
11,"Cc1ccc(-c2csc(NCc3cnc(NCc4ccccc4)s3)n2)cc1 [Compound 2j, N-Benzyl-5-((4-p-tolylthiazol-2-ylamino)methyl)thiazol-2-amine dihydrochloride]",70.7 ± 6.8
12,"Fc1ccc(-c2cc(NCc3cnc(NCc4ccccc4)s3)n[nH]2)cc1 [Compound 2k, N-Benzyl-5-((5-(4-fluorophenyl)-1H-pyrazol-3-ylamino)methyl)thiazol-2-amine dihydrochloride]",81.2 ± 7.3
13,"CNc1ncc(CNc2nc(-c3ccc(C)cc3)cs2)s1 [Compound 2n, N-Methyl-5-((4-p-tolylthiazol-2-ylamino)methyl)thiazol-2-amine dihydrochloride]",27.8 ± 9.9
14,"CNc1ncc(CNc2ncc(-c3ccc(C)cc3)s2)s1 [Compound 2o, N-Methyl-5-((5-p-tolylthiazol-2-ylamino)methyl)thiazol-2-amine dihydrochloride]",39.6 ± 2.8
15,"c1ccc(Nc2ncc(CNc3nccs3)s2)nc1 [Compound 2p, N-(Pyridin-2-yl)-5-((thiazol-2-ylamino)methyl)thiazol-2-amine trihydrochloride]",43.6 ± 2.1
16,"CNc1ncc(CNc2nccs2)s1 [Compound 2w, N-Methyl-5-((thiazol-2-ylamino)methyl)thiazole-2-amine dihydrochloride]",13.9 ± 12.9
17,"Cc1ccc(-c2csc(NCc3cnc(Nc4ccccn4)s3)n2)cc1 [Compound 2z, N-(Pyridin-2-yl)-5-((4-p-tolylthiazol-2-ylamino)methyl)thiazol-2-amine trihydrochloride]",58.7 ± 3
